Experiment [1] deals with IPF-derived lung fibroblasts. The experiment in a line: cell adhesion in IPF-derived lung fibroblasts (FIG. 3B). Format: cell-based.
The subject of experiment [2] is IPF-derived human lung fibroblasts. The experiment in a line: LAP adhesion binding assay, IPF-derived human lung fibroblasts. It is filed as cell-based. Conditions: adhesion to LAP, cell index (electrical impedance), FIG. 3B. The method, then:
Two latency associated peptide (LAP) adhesion binding assays were devised using primary human lung cells, including normal (healthy) human bronchial epithelial cells and human lung fibroblasts (healthy and IPF).
Human lung fibroblasts derived from normal and IPF lung tissue are known to express αvβ1 integrin. The IPF-derived human lung fibroblasts were prepared for the assay by dissociation with trypsin/EDTA, and were seeded at 20,000 cells per well on 96 well plates (ACEA Bioscience E-plate View, Acea Biosciences; San Diego, Calif.) previously coated with 5 μg/ml of recombinant human LAP (R&D Systems; Minneapolis, Minn.) and blocked with 4% bovine serum albumin. Cell index (electrical impedance) was measured to assess cell attachment/spreading every 3 minutes for 24 hours at 37° C./5% CO2 using the xCELLigence RTCA MP Instrument (Acea Biosciences; San Diego, Calif.). […] In the assay, the IPF-derived human lung fibroblasts were separately incubated with: the αvβ1-selective small molecule inhibitor; the selective antibody αvβ6 inhibitor, 3G9; and compound 5.

Experiment [3] has as its system normal bronchial epithelial cell adhesion to LAP. The experiment in a line: normal bronchial epithelial cell adhesion to LAP (FIG. 3A). Format: cell-based.
Experiment [4] concerns Mice (C57BL/6). The experiment in a line: Murine bleomycin model (Example B7). Format: in vivo. The protocol:
Mice (C57BL/6) were divided into healthy (n=15), vehicle-treated (n=15), and test article-treated (n=15 per dose) groups. Mice in the vehicle and test article-treated groups were administered 3 U/kg of bleomycin (Teva Pharmaceuticals; North Wales, Pa.) via oropharyngeal aspiration while under anesthesia on day 0. Healthy animals were administered water in a similar fashion. Starting on day 7, mice in the control group were administered PBS vehicle, 130 μL, by oral gavage, BID for 14 days. Also starting on day 7, mice in the test group were administered compound 5 in PBS by oral gavage, BID for 14 days, at relative dosages of 1×, 2.5× and 5×. […] From day 14 through day 21, 9 of the 15 mice were administered ^2H2O for labeling. All mice were sacrificed on day 21 and tissues were collected. Samples were prepared for analysis either directly from lung tissue, or by bronchoalveolar lavage, which washes out the bronchiolar and alveolar space with saline to produce a bronchoalveolar lavage fluid (BALF) in which 80-90% of cells are alveolar macrophages.
FIG. 4C is a graph showing that compared to the healthy mice, lung tissue in the vehicle-treated mice experienced a substantial increase in SMAD3 phosphorylation, which is a measure of TGF-β signaling-related kinase activity. […] FIG. 4D is a graph showing that compared to the healthy mice, lung tissue in the vehicle-treated mice experienced a substantial accumulation of new collagen as evidenced by the percentage of lung collagen containing ^2H-labeled hydroxyproline.
FIGS. 4F, 4G, and 4H show high resolution second harmonic generation images of fibrillar collagen (collagen type I and III) taken from formalin-fixed paraffin embedded lung tissue sections from a healthy mouse lung (4F), a vehicle-treated mouse lung (4G) and a test-article treated mouse lung (4H; 500 mg/kg BID). Color scale is indicative of collagen fiber density (red=most dense; blue=least dense).
FIG. 4I is a graph showing the percent total collagen area in the second harmonic generation mouse lung images. Large structural areas of collagen found similarly in healthy and fibrotic tissues (dense collagen fibers surrounding airways were excluded from this analysis to focus on interstitial fibrotic collagen). […] The 1×, 2.5×, and 5× dosages were at the same absolute values in mg/kg as in Example B7.
The data for FIGS. 4J and 4K, was obtained 14 days after bleomycin challenge in mice were treated with compound 5 at 2.5× dose (PO, BID for 1.5 days).

Structures are written as SMILES.

The record followed here is US11419869B2, “Dosage forms and regimens for amino acid compounds” (Pliant Therapeutics, Inc., priority 2019, dated 2022).

Consider `COCCN(CCCCc1ccc2c(n1)NCCC2)CC[C@H](Nc1ncnc2ccccc12)C(=O)O` [Compound 5, (S)-4-((2-methoxyethyl) (4-(5,6,7,8-tetrahydro-1,8-naphthyridin-2-yl)butyl)amino)-2-(quinazolin-4-ylamino) butanoic acid], for which the “cell adhesion in the IPF-derived lung fibroblasts” value in experiment [1] and in experiment [2] was “substantially inhibited” in each case. Besides, the “normal bronchial epithelial cell adhesion to LAP” value in experiment [3] is “substantially inhibited”. In experiment [4] (14 days after bleomycin, […] dose PO BID for 1.5 days, FIGS. 4J, 4K), the “pSMAD3 levels in lung and BALF cells vs. plasma drug exposure” value is “close inverse relationship”. Besides, the “percent total collagen area in second harmonic generation lung images” value in experiment [4] (bleomycin mice, 1× (p<0.05), […] (p<0.01), 5× (p<0.0001 vs vehicle), FIG. 4I) is reported as “substantial, statistically significant dose-dependent reduction”. In addition, the “accumulated new collagen (percentage of lung collagen containing 2H-labeled hydroxyproline)” value in experiment [4] (bleomycin mice, 1× and 5× (p<0.01 vs vehicle), FIG. 4D) is reported as “dose-dependent reduction”. Also, the “total pulmonary collagen, as measured by μg of hydroxyproline” value in experiment [4] (bleomycin mice, 1×, […], 5× (p<0.05 vs vehicle), FIG. 4E) is recorded as “reduction in total pulmonary collagen”. The “SMAD3 phosphorylation in lung tissue” value in experiment [4] (bleomycin mice, oral gavage BID 14 days at 1×, […], 5×, vs vehicle, FIG. 4C) is given as “substantial, statistically significant dose-dependent reductions”. The “pSMAD3 levels in the lung” value in experiment [4] (bleomycin mice, time- and dose-dependent inhibition) was “approximately 50 % of the untreated levels”.
